In paper PMC6368403, “Identification of a bilirubin receptor that may mediate a component of cholestatic itch” (eLife, 2019):
Values joined by “and” are separate entries in the source; they are usually repeats but may differ in a detail not shown here. Equal entries are not always repeated.

Legend:
[1] = biological target: T1, MRGPRX4 (Homo sapiens, UniProt Q96LA9); experiment: Ca2+ imaging and concentration-Ca2+ response (EC50) in HEK293 cells expressing MRGPRX4; format: cell-based; conditions: for Ca2+ response (concentration-response curve): MRGPRX4, triplicate wells (Fig 2I)
T1 construct: expressed in transfected cells
T1 sequence (Q96LA9 whole entry): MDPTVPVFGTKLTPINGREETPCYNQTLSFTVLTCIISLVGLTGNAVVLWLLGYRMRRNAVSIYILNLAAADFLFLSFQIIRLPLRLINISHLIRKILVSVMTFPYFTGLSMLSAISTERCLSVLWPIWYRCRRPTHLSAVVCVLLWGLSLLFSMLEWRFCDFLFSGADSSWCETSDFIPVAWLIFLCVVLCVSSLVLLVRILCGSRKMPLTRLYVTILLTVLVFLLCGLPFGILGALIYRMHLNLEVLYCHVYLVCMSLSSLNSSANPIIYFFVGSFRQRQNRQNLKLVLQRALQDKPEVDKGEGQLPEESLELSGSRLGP
How it was run: (§1)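 HEK293 cells stably expressing the mouse or human receptor, loaded with Fura 2-AM 30 min at 37 °C, imaged in HEPES-buffered CIB pH 7.4 (340/380 nm excitation, 510 nm emission). Haem metabolites diluted from DMSO into 20 mM Tris, 150 mM NaCl pH 8.8. EC50 from triplicate dose-responses, repeated 2–4 times.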

[2] = biological target: T2, MRGPRA1 (Mus musculus, UniProt Q91WW5); experiment: Ca2+ imaging and concentration-Ca2+ response (EC50) in HEK293 cells expressing MRGPRA1; format: cell-based; set-up: Ca2+ response: unit not given here; conditions: for Ca2+ response (concentration-response curve): MRGPRA1, triplicate wells (Fig 2D); for Ca2+ response: bilirubin, 3 replicate columns
T2 construct: expressed in transfected cells
T2 sequence (Q91WW5 1-304): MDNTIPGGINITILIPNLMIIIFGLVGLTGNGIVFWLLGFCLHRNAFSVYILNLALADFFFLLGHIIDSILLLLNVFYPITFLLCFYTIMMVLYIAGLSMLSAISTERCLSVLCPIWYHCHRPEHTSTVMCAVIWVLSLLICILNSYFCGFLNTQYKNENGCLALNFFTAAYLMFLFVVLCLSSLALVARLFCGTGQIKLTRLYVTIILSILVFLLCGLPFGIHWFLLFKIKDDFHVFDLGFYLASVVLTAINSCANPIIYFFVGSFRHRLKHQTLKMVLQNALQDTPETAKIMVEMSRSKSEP
How it was run: as §1

[3] = biological target: T1, MRGPRX4; experiment: Microscale thermophoresis binding to MRGPRX4; set-up: microscale thermophoresis response (binding isotherm), mean: unit not given here; conditions: mean of n=3, Fig 2-J
Protocol: Binding isotherms for MRGPRA1, MRGPRX4, and MRGRPC11 towards various ligands were determined by microscale thermophoresis with the NanoTemper monolith NT.115 instrument ([Duhr and Braun, 2006]). Ligands were pre-incubated with 10 µM of the GFP-tagged receptor of interest for 5 min at room temperature in binding buffer (20 mM Tris and 150 mM NaCl at pH 8.8). Receptors were crudely purified as a membrane fraction from cells stably expressing the receptor ([Vasavda et al., 2017]). Haem metabolites were freshly dissolved in 0.1 M NaOH in dim light and then diluted into assay buffer. Lyophilized BAM8-22 was dissolved in binding buffer. The pH of each ligand was evaluated prior to incubation with a receptor. Samples were loaded into NT.115 Hydrophobic-Treated Capillaries from NanoTemper. Microscale thermophoretic experiments were executed using 20% LED power and 15% MST power. KDs were calculated using the law of mass action with data from three independent experiments. Binding between bilirubin and receptors was evaluated purely thermophoretically, whereas binding between BAM8-22 and MRGPRC11 was evaluated by T-Jump. Samples with dramatic deviations in initial fluorescence were excluded.

**Q.** With `C=CC1=C(C)/C(=C/c2[nH]c(Cc3[nH]c(/C=C4\NC(=O)C(C)=C4C=C)c(C)c3CCC(=O)O)c(CCC(=O)O)c2C)NC1=O` [bilirubin, bilirubin IXα] as the molecule, how does the “Calcium response / activation of MRGPRX4-expressing cells” value [1] read?
**A.** Its value is “only MRGPRX4-expressing cells responded”.

**Q.** And the “Ca2+ response (concentration-response curve)” value ([1]; [Ligand] 1.95313e-6 M)?
**A.** The value was 0.6657 and 0.5292 and 0.882.

**Q.** And the “Ca2+ response (concentration-response curve)” value ([1]; [Ligand] 3.90625e-6 M)?
**A.** Its value is 0.5596 and 0.9735 and 0.9102.

**Q.** And the “Ca2+ response (concentration-response curve)” value ([1]; [Ligand] 7.8125e-6 M)?
**A.** Its value is 0.7828 and 0.7465 and 0.8173.

**Q.** What about the “Ca2+ response (concentration-response curve)” value ([1]; [Ligand] 1.5625e-5 M) of the same molecule?
**A.** Its value is 0.5886 and 0.7131 and 0.5739.

**Q.** What about the “Ca2+ response (concentration-response curve)” value ([1]; [Ligand] 3.125e-5 M) of the same molecule?
**A.** The value was 0.9259 and 0.9222 and 0.8162.

**Q.** And the “Ca2+ response (concentration-response curve)” value ([1]; [Ligand] 6.25e-5 M)?
**A.** The value was 1.178 and 1.234 and 1.122.

**Q.** And the “Ca2+ response (concentration-response curve)” value ([1]; [Ligand] 0.000125 M)?
**A.** Its value is 1.451 and 1.464 and 1.382.

**Q.** What about the “Ca2+ response (concentration-response curve)” value ([1]; [Ligand] 0.00025 M) of the same molecule?
**A.** The value was 1.643 and 1.595 and 1.524.

**Q.** And the “Calcium response / activation of MRGPRA1-expressing cells” value ([2]; 50 µM bilirubin, 30 µM FMRF)?
**A.** Its value is “exhibited a calcium response”.

**Q.** And the “Ca2+ response (concentration-response curve)” value ([2]; [Ligand] 3.90625e-6 M)?
**A.** The value was 1.244 (2×) and 1.27.

**Q.** What about the “Ca2+ response (concentration-response curve)” value ([2]; [Ligand] 7.8125e-6 M) of the same molecule?
**A.** Its value is 1.285 and 1.272 and 1.244.

**Q.** What about the “Ca2+ response (concentration-response curve)” value ([2]; [Ligand] 1.5625e-5 M) of the same molecule?
**A.** Its value is 1.239 (2×) and 1.229.

**Q.** And the “Ca2+ response (concentration-response curve)” value ([2]; [Ligand] 3.125e-5 M)?
**A.** Its value is 1.214 and 1.216 and 1.186.

**Q.** What about the “Ca2+ response (concentration-response curve)” value ([2]; [Ligand] 6.25e-5 M) of the same molecule?
**A.** Its value is 1.236 and 1.293 and 1.259.

**Q.** What about the “Ca2+ response (concentration-response curve)” value ([2]; [Ligand] 0.000125 M) of the same molecule?
**A.** The value was 1.409 and 1.368 and 1.342.

**Q.** What about the “Ca2+ response (concentration-response curve)” value ([2]; [Ligand] 0.00025 M) of the same molecule?
**A.** Its value is 1.512 and 1.513 and 1.452.

**Q.** And the “Ca2+ response (concentration-response curve)” value ([2]; [Ligand] 0.0005 M)?
**A.** Its value is 1.582 and 1.563 and 1.522.

**Q.** And the “Ca2+ response” value ([2]; [Ligand] (M) -3 (log scale))?
**A.** The value was 92.1113 and 105.486 and 102.402.

**Q.** What about the “Ca2+ response” value ([2]; [Ligand] (M) -3.30103 (log scale)) of the same molecule?
**A.** Its value is 69.422 and 70.1483 and 63.5847.

**Q.** And the “Ca2+ response” value ([2]; [Ligand] (M) -3.60206 (log scale))?
**A.** Its value is 71.8089 and 75.8019 and 75.1545.

**Q.** And the “Ca2+ response” value ([2]; [Ligand] (M) -3.90309 (log scale))?
**A.** The value was 61.2591 and 54.8317 and 55.4389.

**Q.** And the “Ca2+ response” value ([2]; [Ligand] (M) -4.20412 (log scale))?
**A.** The value was 49.8998 and 18.4414 and 32.057.

**Q.** And the “Ca2+ response” value ([2]; [Ligand] (M) -4.50515 (log scale))?
**A.** The value was 6.418 and 7.051 and 1.245.

**Q.** And the “Ca2+ response” value ([2]; [Ligand] (M) -4.80618 (log scale))?
**A.** Its value is 27.9538 and 0 (2×).

**Q.** And the “Ca2+ response” value ([2]; [Ligand] (M) -5.10721 (log scale))?
**A.** Its value is 34.8054 and 0 (2×).

**Q.** What about the “microscale thermophoresis response (binding isotherm), mean” value (“microscale thermophoresis response” below) ([3]; [Ligand] 3.05e-8 M) of the same molecule?
**A.** Its value is 7.584.

**Q.** What about the “microscale thermophoresis response” value ([3]; [Ligand] 6.1e-8 M) of the same molecule?
**A.** The value was 6.444.

**Q.** And the “microscale thermophoresis response” value ([3]; [Ligand] 1.221e-7 M)?
**A.** Its value is 6.442.

**Q.** What about the “microscale thermophoresis response” value ([3]; [Ligand] 2.441e-7 M) of the same molecule?
**A.** The value was 4.051.

**Q.** What about the “microscale thermophoresis response” value ([3]; [Ligand] 4.883e-7 M) of the same molecule?
**A.** Its value is -2.46.

**Q.** What about the “microscale thermophoresis response” value ([3]; [Ligand] 9.766e-7 M) of the same molecule?
**A.** Its value is -5.393.

**Q.** And the “microscale thermophoresis response” value ([3]; [Ligand] 1.9531e-6 M)?
**A.** Its value is 5.84.

**Q.** And the “microscale thermophoresis response” value ([3]; [Ligand] 3.9063e-6 M)?
**A.** Its value is 1.017.

**Q.** What about the “microscale thermophoresis response” value ([3]; [Ligand] 7.8125e-6 M) of the same molecule?
**A.** The value was 9.66.

**Q.** What about the “microscale thermophoresis response” value ([3]; [Ligand] 1.5625e-5 M) of the same molecule?
**A.** The value was 19.4349.

**Q.** And the “microscale thermophoresis response” value ([3]; [Ligand] 3.125e-5 M)?
**A.** The value was 35.6519.

**Q.** And the “microscale thermophoresis response” value ([3]; [Ligand] 6.25e-5 M)?
**A.** The value was 68.0309.

**Q.** And the “microscale thermophoresis response” value ([3]; [Ligand] 0.000125 M)?
**A.** The value was 97.8035.

**Q.** And the “microscale thermophoresis response” value ([3]; [Ligand] 0.00025 M)?
**A.** Its value is 117.52.

**Q.** What about the “microscale thermophoresis response” value ([3]; [Ligand] 0.0005 M) of the same molecule?
**A.** Its value is 123.698.

**Q.** What about the “microscale thermophoresis response” value ([3]; [Ligand] 0.001 M) of the same molecule?
**A.** Its value is 119.096.
